Patent publication US20190125753A1, “COMPOUNDS AND METHODS FOR INCREASING HEMATOPOIESIS” (University of Southern California, priority 2016, published 2019)

Columns and labels:
[1] = system: Human survivin promoter; assay: Survivin/luciferase reporter (Survivin-Hek-293); format: cell-based; settings: Homo sapiens; Survivin-Hek-293, 24 hours; read-out: survivin/luciferase reporter: did not inhibit up to
Procedure: Hek293 cells were stably transfected with plasmid that contains multiple TCF/LEF fragments in front of Luciferase gene. Wnt/β-catenin activity was determined from luciferase expression levels. […] Briefly, stably transfected Hek-293, STFI.1 (Wnt/β-catenin-driven luciferase) and Survivin-Hek-293 (1 Kb Human survivin promoter-driven luciferase) cells were maintained in DMEM, 10% FBS, Pen/Strep with 400 μg/mL G418 or 2 μg/mL puromycin, respectively. To check the activity of ICG-001, YH249, and YH250, the cells were split into white-opaque 96-well plates at 10,000 cells per well and allowed to attach overnight. For SuperTOPLASH, the inhibitors were added to the cells and pre-incubated for 1 hour prior to stimulation with 10 mM Li Cl for 24 hours. Luciferase activity was read using BrightGlo (Promnega) luciferase substrate. For survivin/luc, the inhibitors were added to the cells and incubated for 24 hours prior to readout. To calculate IC5o values, the resulting curve was fitted to a four-parameter logistic model (4PL) using GraphPad Prism 5 software.
B. Survivin Expression Level: The Secondary Screen.
An endogenous human survivin 1 kb promoter was inserted before a luciferase gene. […] R1 and R2 were diversified in this study. Percent inhibition of luciferase activity was calculated according to the following equations; % inhibition of STF 1.1 reporter activity=(I−RLU(10 mM LiCl) treated/RLU(10 omM LiCl) vehicle×control)100, % inhibition of Survivin reporter activity=(1−RLUtreated/RLU vehicle control)×100. Error bars indicate the mean±SE of 3 separate experiments. Selectivity (FIG. 2H) was calculated by IC50 value for Survivin-Hek-293/IC50 value for STF 1.1.

[2] = system: mouse bone marrow cells; assay: CFU-S12 assay (treated cells injected to lethally irradiated mice); format: in vivo; settings: cells treated in vitro, 12 days after injection
From the text: In CFU-S12 assay, cells treated with DMSO or YH250 were recovered from plate and injected to lethally irradiated mice (FIG. 8A), 12 days later, animals were euthanized to check spleen colony formation and spleen weight.

[3] = system: mouse bone marrow cells; assay: 3-day in vitro culture of bone marrow cells, FACS; format: cell-based; settings: 0.5 μM, 3 days, 200,000 live cells analyzed
Procedure: Mouse bone marrow cells were isolated and cultured in QBSF-58 medium with DMSO or YH250 0.5 μM (medium contains 10 ng/ml of SCF, TPO, Flt3 ligand, and IL-6) for 3 days and cells are recovered and analyzed for HSC surface markers with FACS.

[4] = system: bone marrow HSPC; assay: HSPC proliferation in 7Gy irradiated mice (BrdU, cell cycle, FACS); format: in vivo, mouse
Procedure: YH250 was also tested for stimulation of HSPC (hematopoietic stem/progenitor population) proliferation in irradiated animals. In this study, mice received 7Gy whole body radiation, DMSO or YH250 (s.c., 2 mg/Kg) were administrated 24 hours post radiation, followed with BrdU injection. FIG. 17A depicts the experimental procedure. […] Then, YH250 was administrated to 7Gy irradiated animals and 4 days later, bone marrow cells were isolated for FACS analysis for HSC markers (FIG. 17E).

[5] = system: bone marrow HSPC; assay: Competitive repopulation assay with bone marrow of 7Gy irradiated mice; format: in vivo, mouse
Procedure: In the hematopoietic system, the LTR-HSC or pluripotent HSC sits atop the hematopoietic hierarchy. LTR-HSCs subsequently generate “Short Term Repopulating” hematopoietic stem cells (STR-HSC), and then progenitor cells. After radiation induced myeloid-ablation, there is a significant loss of progenitor cells. To investigate the target cell population in irradiated mice, YH250 or DMSO were administrated to 7Gy irradiated animals 24 hours post radiation. Then, 7 or 14 days post radiation (6 or 13 days after YH250 or DMSO administration), bone marrow cells were recovered from animals and competitive repopulation assay was performed to study YH250 function in stimulating HSPC proliferation. 1×10^6 testing bone marrow cells were mixed with 2×10^5 competitor cells (from non-irradiated mice) and injected into lethally irradiated mice (9Gy) (FIG. 18A). HSPC cell number will be reflected in the short-term (1-2 months after BMT) or long-term (≥4 month of BMT) engraftment. […] The same observation also applies to cells isolated 14th day post 7Gy radiation.
The expanded LTR-HSC at day 6 post YH250 stimulation then starts to develop and give more STR-HSC by day 14 post radiation. There is no further LTR-HSC expanding from day 6 to day 13 post YH250. Thus, one dose of YH250 administrated 24 hours post 7Gy radiation stimulated symmetric non-differentiation LTR-HSC expansion and followed with STR-HSC expansion.

[6] = bone marrow cells recovered day 7 post radiation
[7] = bone marrow cells recovered day 14 post radiation

COc1cccc(CNC(=O)N2C3CN(Cc4cc(Cl)cc(Cl)c4N(C)C)C(=O)[C@H](Cc4ccc(O)cc4)N3C(=O)CN2C)c1OC (some centres unmarked) [YH250]
IC50 [1]: > 20 µM
spleen colonies (CFU-S12) [2]: larger colonies on spleen
spleen weight (CFU-S12) [2]: heavier spleen
LSK 48 − 150+ % [3]: 16%
LSK 135 + 34+ % [3]: 67%
LSK 135 + 34+ Cell# [3]: 4263
LSK 135 − 34+ % [3]: 25%
LSK 135 − 34+ Cell# [3]: 1602
LSK 135 − 34− % [3]: 7%
LSK 135 − 34− Cell# [3]: 445
LSK % [3]: 16%
LSK Cell# [3]: 6340
Lin-neg % [3]: 20%
Lin-neg Cell# [3]: 40015
LSK 48 − 150+ Cell# ([3]; DMSO 607): 992
bone marrow cells in S phase ([4]; 7Gy irradiation): more bone marrow cells in S phase
HSPC (L−CD48−CD150+ cells) ([4]; 7Gy, 4 days after administration): increased HSPC
BrdU positive cells in lineage negative (Lin) population ([4]; 7Gy, s.c., 2 mg/Kg 24 hours post radiation): more BrdUpost cells
long-term engraftment [5, 6]: 4.1±1.6
short term engraftment [5, 6]: 5.8±2.4
long-term engraftment [5, 7]: 3.4±0.57
short term engraftment [5, 7]: 12.3±2.0
engraftment vs DMSO treated animals, short term and long term ([5]; cells recovered 7th day post 7Gy radiation, one dose 24 hours post radiation): better engraftment
